These results are taken from ChEMBL document CHEMBL3112504, “Design, structural and biological characterization of a VEGF inhibitor β-hairpin-constrained peptide” (2014).

Test [1] concerns HUVEC. Briefly: Inhibition of VEGFR in HUVEC assessed as reduction in Akt phosphorylation at 25 to 100 ng/ml after 15 mins by Western blotting analysis. The class given is cell-based. The settings on record: Homo sapiens. Background: A western blot detects proteins with antibodies after separation by electrophoresis.
Test [2] relates to HUVEC. Briefly: Inhibition of VEGFR in HUVEC assessed as reduction in VEGF-induced ERK1/2 phosphorylation at 25 to 100 ng/ml after 15 mins by Western blotting analysis. The class given is cell-based. The following applies: Homo sapiens.
In test [3] the test system is HUVEC. Briefly: Induction of proapoptosis in HUVEC assessed as increase in caspase 3 activity at 25 to 100 ng/ml after 8 hrs by fluorimetric assay. The class given is functional, cell-based. The settings on record: Homo sapiens.
Test [4] deals with HUVEC. Briefly: Induction of proapoptosis in VEGF-treated HUVEC assessed as increase in caspase 3 activity after 8 hrs by fluorimetric assay. Format: functional, cell-based. The following applies: Homo sapiens.
Test [5] deals with HUVEC. Briefly: Inhibition of VEGFR in HUVEC assessed as reduction in ERK1/2 phosphorylation at 25 to 100 ng/ml after 15 mins by Western blotting analysis. Format: cell-based. The following applies: Homo sapiens.
Test [6] relates to HUVEC. Briefly: Inhibition of VEGF-induced HUVEC proliferation at 50 to 100 […] after 48 hrs by CyQuant cell proliferation assay. Format: functional, Homo sapiens.
In test [7] the test system is HUVEC. Description: Induction of proapoptosis in VEGF-treated HUVEC assessed as increase in caspase 3 activity at 25 to 100 ng/ml after 8 hrs by fluorimetric assay. The following applies: Homo sapiens. Format: functional, cell-based.
The subject of test [8] is HUVEC. Description: Inhibition of VEGFR in HUVEC assessed as reduction in VEGF-induced Akt phosphorylation at 25 to 100 ng/ml after 15 mins by Western blotting analysis. The class given is cell-based. The following applies: Homo sapiens.
The subject of test [9] is HUVEC. Briefly: Induction of proapoptosis in VEGF-treated HUVEC assessed as increase in caspase 3 activity at 100 ng/ml after 8 hrs by fluorimetric assay. The following applies: Homo sapiens. Format: functional, cell-based.
The subject of test [10] is HUVEC. Briefly: Inhibition of VEGFR in HUVEC assessed as reduction in VEGF-induced ERK1/2 phosphorylation at 100 ng/ml after 15 mins by Western blotting analysis. Format: cell-based. The settings on record: Homo sapiens.
The subject of test [11] is HUVEC. Description: Inhibition of VEGFR in HUVEC assessed as reduction in VEGF-induced Akt phosphorylation at 100 ng/ml after 15 mins by Western blotting analysis. Format: cell-based. The settings on record: Homo sapiens.

Calls of active or inactive are those of the source. No cut-off for these calls is given here. Peptide text beside a SMILES is read from it.

For `CC[C@H](C)[C@H](NC(=O)[C@H](Cc1c[nH]c2ccccc12)NC(=O)[C@H](CC(C)C)NC(=O)[C@H](CS)NC(=O)[C@H](CCC(N)=O)NC(=O)[C@@H](N)CCCCN)C(=O)N[C@@H](CCCNC(=N)N)C(=O)N[C@@H](CO)C(=O)NCC(=O)N[C@@H](CC(=O)O)C(=O)N[C@@H](CCCNC(=N)N)C(=O)N1CCC[C@H]1C(=O)N[C@@H](Cc1c[nH]c2ccccc12)C(=O)N[C@@H](Cc1ccc(O)cc1)C(=O)N[C@@H](CS)C(=O)N[C@H](C(=O)N[C@@H](CO)C(=O)O)[C@@H](C)O` (H-KQCLWIRSGDRPWYCTS-OH), the inhibition entry in test [1] and in test [5] was “inactive” in each case. Besides, the inhibition result in test [2] and in test [8] was “Active” each time. Further, the outcome in test [3] was inactive. The Activity entry in test [4] was “Dose-dependent effect”. In [6], the “inhibition (INH)” value was greater than 95%. Further, in test [7], the outcome was Active.

Turning to H-KPDRWSQWRSTYSLSIG-OH, the outcome in test [9] was inactive. For the same compound, the inhibition entry in test [10], in test [6] (Homo sapiens) and in [11] was “inactive” each time.
